# Laboratory results reported in article PMC3303751, “Development of Tyrosine-Based Radiotracer ^99mTc-N4-Tyrosine for Breast Cancer Imaging” (Journal of Biomedicine and Biotechnology, 2012).
# Legend:
# [1] = Partition coefficient (1-octanol/sterile water); format: physicochemical; settings: room temperature
# Experimental: To determine the lipophilicity, 20 μL of ^99mTc-N4-Tyrosine was added into an equal volume mixture of 1-octanol and sterile water in a centrifuge tube. The mixture was vortexed at room temperature for 1 minute and then centrifuged at 5,000 rpm for 5 minutes to allow phase separation. From each phase, 0.1 mL of the aliquot was taken out, and the radioactivity was measured by gamma counter (Cobra Quantum, Packard, MN, USA). The measurement was repeated 3 times, and care was taken to avoid cross-contamination between the phases. The partition coefficient value, expressed as log P, was calculated using the following equation:
# (1) Log P= log(radioactivity in 1‐octanol layer/radioactivity in sterile water layer)
# [2] = system: breast tumor (13762) and turpentine oil-induced inflammation; test: Tumor and inflammation uptake comparison, planar scintigraphy; format: in vivo, Fischer 344 rats; settings: tumor- and inflammation-bearing rats
# Experimental: To investigate whether ^99mTc-N4-Tyrosine can differentiate tumor tissue from inflammatory tissue, a rat model bearing both a mammary tumor and tissue with turpentine oil-induced inflammation was created. Rat breast tumor cells (from cell line 13762; 10^5 cells/0.1 mL phosphate-buffered solution per rat) were injected into the right calf muscles of 3 female Fischer 344 rats. After the tumors reached 1 cm in diameter, turpentine oil (0.1 mL/rat) was injected into the left calf muscles of the rats to induce inflammation. The anesthetized rats were injected intravenously with ^99mTc-N4-Tyrosine 24 hours after the turpentine injection. Planar scintigraphic images were acquired at 30, 120, and 240 minutes after the ^99mTc-N4-Tyrosine injection, and ROIs of the tumor, inflamed tissue, and muscle were used to calculate the tumor-to-muscle ratios (T/Ms), inflammation-to-muscle ratios (I/Ms), and tumor-to-inflammation ratios (T/Is), respectively. The same animal model was used to evaluate ^18F-FDG. Micro-PET imaging of ^18F-FDG was performed using an R4 micro-PET scanner (Concorde Microsystems, Knoxville, TN, USA). Three breast tumor- and inflammation-bearing rats were injected intravenously with ^18F-FDG (500 μCi/rat), and dynamic PET scans with a spatial resolution of 2.2 mm were obtained at 30, 60, and 90 minutes after ^18F-FDG injection. PET images were reconstructed by using the ordered subset expectation maximization (OSEM) algorithm. T/M, I/M, and T/I ratios were calculated using the regional radioactivity concentrations (μCi/cm^3) that were estimated from the average pixels within ROIs drawn around the tumor, inflamed tissue, or muscle on transverse slices of the reconstructed image sets.
# [3] = OLINDA/EXM dosimetry estimates; set-up: species or system human (70 kg standard man model)
# Text: Rat absorbed dose estimates for ^99mTc-N4-Tyrosine were computed from biodistribution data. Individual organ and whole-body time-activity curves were fitted to exponential functions using OLINDA/EXM software (version 1.1; Vanderbilt University, Nashville, TN, USA). These functions were then integrated analytically to determine the area under the curve to yield the residence time of ^99mTc-N4-Tyrosine in each organ. It was assumed that the injected activity of ^99mTc-N4-Tyrosine was uniformly distributed throughout the body immediately following injection. Mass correction factors were used to account for the different ratios of organs to total body weight and different scaling of residence times between rats and humans. Residence times were then used to calculate target organ absorbed radiation doses for a 70 kg standard man model using the OLINDA/EXM software.
# [4] = system: breast tumor cell line 13762 tumors; test: Planar scintigraphic imaging in breast tumor-bearing rats; format: in vivo, Fischer 344 rats; settings: for Tumor %ID (percent of injected dose in the tumor) / tumor-to-muscle (T/M) ratio: i.v. 300 μCi/rat
# Experimental: Cells from the breast tumor cell line 13762, suspended in phosphate-buffered solution (10^5 cells/0.1 mL solution per rat), were injected subcutaneously into the right calf muscle of female Fischer 344 rats (n = 9). Planar scintigraphic imaging of ^99mTc-N4-Tyrosine was performed 12–14 days after inoculation when tumors reached approximately 1 cm in diameter. The breast tumor-bearing rats (n = 3/time point) were anesthetized and injected intravenously with ^99mTc-N4-Tyrosine (0.3 mg/rat, 300 μCi/rat), and images were acquired at 30, 120, and 240 minutes after administration of tracers. Planar scintigraphic images were obtained using M-CAM (Siemens Medical Solutions, Hoffman Estates, IL, USA) equipped with a low-energy high-resolution collimator. Computer-outlined regions of interest (ROIs in counts per pixel) between tumor and muscle tissue were used to calculate tumor-to-muscle (T/M) ratios. Percent of injected dose (%ID) in the tumor was also calculated from the reference standard, which was 1/10 of the original injection activity of ^99mTc-N4-Tyrosine.
# [5] = Blood clearance in normal rats; format: in vivo; settings: normal female Fischer 344 rats, i.v. 30 μCi
# Experimental: All animal work was carried out in the Small Animal Imaging Facility at MD Anderson under a protocol approved by the Institutional Animal Care and Use Committee. For blood clearance analysis, 3 normal female Fischer 344 rats (150 ± 25 g; Harlan Sprague-Dawley, Indianapolis, IN, USA) were intravenously injected with 30 μCi of ^99mTc-N4-Tyrosine. Blood samples (n = 3/rat) were drawn from each rat through the lateral tail vein by microliter pipette (10 μL) at several time points between 5 minutes and 24 hours after injection. The blood samples were measured for radioactivity by gamma counter, and the radioactivity was expressed as a percentage of the injected dose per gram of blood (%ID/g).
# [6] = system: rat breast tumor cell line 13762; test: In vitro cellular uptake; format: cell-based; settings: 13762 cells
# Experimental: Rat breast tumor cell line 13762 (American Type Culture Collection, Rockville, MD, USA) was used for both in vitro studies and to create the animal model for in vivo evaluation. All cells were maintained in Dulbecco's modified Eagle's medium and nutrient mixture F-12 Ham (DMEM/F12; GIBCO, Grand Island, NY) at 37°C in a humidified atmosphere containing 5% CO2.
# For in vitro cellular uptake analysis, cells were plated onto 6-well tissue culture plates (2 × 10^5 cells/well) 48 hours before adding the radiotracers and incubated with ^99mTc-N4-Tyrosine (0.05 mg/well, 8 μCi/well), ^99mTc-N4 (0.025 mg/well, 8 μCi/well), or ^18F-FDG (8 μCi/well) for 0–4 hours. After incubation, cells were washed with ice-cold phosphate-buffered solution twice and detached using a treatment of 0.5 mL of trypsin for 5 minutes. Cells were then collected, and the radioactivity of the cells was measured in triplicate with a gamma counter (Cobra Quantum). Radioactivity was expressed as mean ± standard deviation (SD) percent of cellular uptake (%Uptake).
# [7] = Tissue distribution in normal rats; format: in vivo, Fischer 344 rats; settings: for tissue distribution, Blood / tissue distribution, Bone and joint / tissue distribution, Brain / tissue distribution, Heart / tissue distribution, Intestine / tissue distribution, Kidney / tissue distribution, Liver / tissue distribution, Lung / tissue distribution, Muscle / tissue distribution, Pancreas / tissue distribution, Spleen / tissue distribution, Stomach / tissue distribution, Thyroid: i.v.
# Experimental: Tissue distribution studies of ^99mTc-N4-Tyrosine were conducted using normal female Fischer 344 rats (150 ± 25 g, n = 9). The rats were divided into 3 groups, and each rat was injected intravenously with 25 ± 0.5 μCi of ^99mTc-N4-Tyrosine. Each group was examined at 1 of 3 time points (0.5, 2, or 4 hours after injection). At each time point, the rats were killed, and the selected tissues were excised, weighed, and measured for radioactivity by gamma counter. For each sample, radioactivity was expressed as mean percentage of the injected dose per gram of tissue wet weight (%ID/g). Counts from a 1/10 diluted sample of the original injection were used as a reference.
# [8] = 15 mCi per patient, 70 kg adult man
substance,measurement,setting,value
"^99mTc-O-[3-(1,4,8,11-tetraazabicyclohexadecane)-propyl]-tyrosine [^99mTc-N4-Tyrosine]",log P,[1],−2.83 ± 0.082
same,inflammation-to-muscle (I/M) ratio,[2]; 30 min,4.26
same,tumor-to-inflammation (T/I) ratio,[2]; 30 min,1.2
same,tumor-to-muscle (T/M) ratio,[2]; 30 min,5.12
same,inflammation-to-muscle (I/M) ratio,[2]; 120 min,3.62
same,tumor-to-inflammation (T/I) ratio,[2]; 120 min,1.14
same,tumor-to-muscle (T/M) ratio,[2]; 120 min,4.11
same,inflammation-to-muscle (I/M) ratio,[2]; 240 min,2.45
same,tumor-to-inflammation (T/I) ratio,[2]; 240 min,1.32
same,tumor-to-muscle (T/M) ratio,[2]; 240 min,3.24
same,tumor-to-inflammation (T/I) ratios,[2]; all time points,greater than 1
same,"Human dose (15 mCi), Adrenals",[3]; [8],2.58E − 01 rem
same,"Human dose (15 mCi), Brain",[3]; [8],2.61E − 02 rem
same,"Human dose (15 mCi), Breasts",[3]; [8],7.08E − 02 rem
same,"Human dose (15 mCi), Effective dose",[3]; [8],1.22E − 01 rem
same,"Human dose (15 mCi), Effective dose equivalent",[3]; [8],3.17E − 01 rem
same,"Human dose (15 mCi), Gallbladder wall",[3]; [8],2.10E − 01 rem
same,"Human dose (15 mCi), Heart wall",[3]; [8],4.73E − 01 rem
same,"Human dose (15 mCi), Kidneys",[3]; [8],2.70E + 00 rem
same,"Human dose (15 mCi), Liver",[3]; [8],3.06E − 01 rem
same,"Human dose (15 mCi), Lower large intestine wall",[3]; [8],9.00E − 02 rem
same,"Human dose (15 mCi), Lungs",[3]; [8],1.26E − 01 rem
same,"Human dose (15 mCi), Muscle",[3]; [8],7.44E − 02 rem
same,"Human dose (15 mCi), Osteogenic cells",[3]; [8],2.90E − 01 rem
same,"Human dose (15 mCi), Ovaries",[3]; [8],9.80E − 02 rem
same,"Human dose (15 mCi), Pancreas",[3]; [8],2.09E − 01 rem
same,"Human dose (15 mCi), Red marrow",[3]; [8],1.06E − 01 rem
same,"Human dose (15 mCi), Skin",[3]; [8],4.95E − 02 rem
same,"Human dose (15 mCi), Small intestine",[3]; [8],1.50E − 01 rem
same,"Human dose (15 mCi), Spleen",[3]; [8],3.14E − 01 rem
same,"Human dose (15 mCi), Stomach wall",[3]; [8],1.38E − 01 rem
same,"Human dose (15 mCi), Testes",[3]; [8],4.40E − 02 rem
same,"Human dose (15 mCi), Thymus",[3]; [8],1.27E − 01 rem
same,"Human dose (15 mCi), Thyroid",[3]; [8],6.92E − 02 rem
same,"Human dose (15 mCi), Total Body",[3]; [8],1.10E − 01 rem
same,"Human dose (15 mCi), Upper large intestine wall",[3]; [8],1.36E − 01 rem
same,"Human dose (15 mCi), Urinary bladder wall",[3]; [8],7.71E − 02 rem
same,"Human dose (15 mCi), Uterus",[3]; [8],9.80E − 02 rem
same,Total rem absorbed by each organ versus US FDA limits for radioactive research drugs,[3]; proposed injection of 15 mCi per patient,below these limits
same,tumor detection by planar scintigraphic imaging,"[4]; all time points (30, 120, 240 minutes)",clearly detected
same,Tumor %ID (percent of injected dose in the tumor),[4]; 30 minutes,1.82 %ID
same,tumor-to-muscle (T/M) ratio,[4]; 30 minutes,5.12
same,Tumor %ID (percent of injected dose in the tumor),[4]; 120 minutes,1.87 %ID
same,tumor-to-muscle (T/M) ratio,[4]; 120 minutes,4.88
same,Tumor %ID (percent of injected dose in the tumor),[4]; 240 minutes,1.71 %ID
same,tumor-to-muscle (T/M) ratio,[4]; 240 minutes,5.2
same,plasma half-life of the distribution phase (t1/2α),[5],9.31 ± 0.759 min
same,plasma half-life of the elimination phase (t1/2β),[5],90.14 ± 1.901 min
same,mean %Uptake compared with ^18F-FDG,[6]; 8 μCi/well,much higher than that of ^18F-FDG
same,cellular uptake kinetics (%Uptake),[6]; incubation 15-240 minutes,increased dramatically up to 240 minutes
same,"tissue distribution, Blood",[7]; 30 min after injection,0.88 %ID/g
same,"tissue distribution, Bone and joint",[7]; 30 min after injection,0.24 %ID/g
same,"tissue distribution, Brain",[7]; 30 min after injection,0.03 %ID/g
same,"tissue distribution, Heart",[7]; 30 min after injection,0.21 %ID/g
same,"tissue distribution, Intestine",[7]; 30 min after injection,0.34 %ID/g
same,"tissue distribution, Kidney",[7]; 30 min after injection,11.05 %ID/g
same,"tissue distribution, Liver",[7]; 30 min after injection,1.15 %ID/g
same,"tissue distribution, Lung",[7]; 30 min after injection,0.50 %ID/g
same,"tissue distribution, Muscle",[7]; 30 min after injection,0.07 %ID/g
same,"tissue distribution, Pancreas",[7]; 30 min after injection,0.17 %ID/g
same,"tissue distribution, Spleen",[7]; 30 min after injection,0.94 %ID/g
same,"tissue distribution, Stomach",[7]; 30 min after injection,0.20 %ID/g
same,"tissue distribution, Thyroid",[7]; 30 min after injection,0.34 %ID/g
same,"tissue distribution, Blood",[7]; 120 min after injection,0.20 %ID/g
same,"tissue distribution, Bone and joint",[7]; 120 min after injection,0.15 %ID/g
same,"tissue distribution, Brain",[7]; 120 min after injection,0.02 %ID/g
same,"tissue distribution, Heart",[7]; 120 min after injection,0.06 %ID/g
same,"tissue distribution, Intestine",[7]; 120 min after injection,0.13 %ID/g
same,"tissue distribution, Kidney",[7]; 120 min after injection,12.34 %ID/g
same,"tissue distribution, Liver",[7]; 120 min after injection,0.70 %ID/g
same,"tissue distribution, Lung",[7]; 120 min after injection,0.19 %ID/g
same,"tissue distribution, Muscle",[7]; 120 min after injection,0.03 %ID/g
same,"tissue distribution, Pancreas",[7]; 120 min after injection,0.07 %ID/g
same,"tissue distribution, Spleen",[7]; 120 min after injection,0.76 %ID/g
same,"tissue distribution, Stomach",[7]; 120 min after injection,0.08 %ID/g
same,"tissue distribution, Thyroid",[7]; 120 min after injection,0.10 %ID/g
same,"tissue distribution, Blood",[7]; 240 min after injection,0.17 %ID/g
same,"tissue distribution, Bone and joint",[7]; 240 min after injection,0.12 %ID/g
same,"tissue distribution, Brain",[7]; 240 min after injection,0.01 %ID/g
same,"tissue distribution, Heart",[7]; 240 min after injection,0.05 %ID/g
same,"tissue distribution, Intestine",[7]; 240 min after injection,0.11 %ID/g
same,"tissue distribution, Kidney",[7]; 240 min after injection,12.40 %ID/g
same,"tissue distribution, Liver",[7]; 240 min after injection,0.67 %ID/g
same,"tissue distribution, Lung",[7]; 240 min after injection,0.14 %ID/g
same,"tissue distribution, Muscle",[7]; 240 min after injection,0.02 %ID/g
same,"tissue distribution, Pancreas",[7]; 240 min after injection,0.05 %ID/g
same,"tissue distribution, Spleen",[7]; 240 min after injection,0.63 %ID/g
same,"tissue distribution, Stomach",[7]; 240 min after injection,0.06 %ID/g
same,"tissue distribution, Thyroid",[7]; 240 min after injection,0.09 %ID/g
same,stability in vivo,[7]; inferred from low thyroid and stomach uptake,high stability in vivo
